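Where inhibition never reached the appropriate level, the endpoint shown equals the highest concentration tested. Otherwise, values were interpolated linearly from a five-concentration, 48-hour dose response in 96-well plates. Definition used: TGI = concentration required for complete inhibition of growth.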
Key:
Experiment in all cases: NCI tumour cell line growth inhibition, 48 h
TK-10 renal = tested on: TK-10 renal
DMS 273 small cell lung = tested on: DMS 273 small cell lung
U251 CNS = tested on: U251 CNS
SK-OV-3 ovarian = tested on: SK-OV-3 ovarian
SF-268 CNS = tested on: SF-268 CNS
SN12C renal = tested on: SN12C renal
MALME-3M melanoma = tested on: MALME-3M melanoma
MOLT-4 leukemia = tested on: MOLT-4 leukemia
HL-60(TB) leukemia = tested on: HL-60(TB) leukemia
COLO 205 colon = tested on: COLO 205 colon
UACC-257 melanoma = tested on: UACC-257 melanoma
NCI-H23 lung = tested on: NCI-H23 lung
SW-620 colon = tested on: SW-620 colon
SF-295 CNS = tested on: SF-295 CNS
HCT-116 colon = tested on: HCT-116 colon
SK-MEL-5 melanoma = tested on: SK-MEL-5 melanoma
KM12 colon = tested on: KM12 colon
DMS 114 small cell lung = tested on: DMS 114 small cell lung
M14 melanoma = tested on: M14 melanoma
RXF 393 renal = tested on: RXF 393 renal
CAKI-1 renal = tested on: CAKI-1 renal
OVCAR-3 ovarian = tested on: OVCAR-3 ovarian
HCT-15 colon = tested on: HCT-15 colon
UO-31 renal = tested on: UO-31 renal
LXFL 529 NSCLC = tested on: LXFL 529 NSCLC
K-562 leukemia = tested on: K-562 leukemia
NCI-H460 lung = tested on: NCI-H460 lung
NCI-H226 lung = tested on: NCI-H226 lung
DLD-1 colon = tested on: DLD-1 colon
CCRF-CEM leukemia = tested on: CCRF-CEM leukemia
OVCAR-8 ovarian = tested on: OVCAR-8 ovarian
HOP-92 NSCLC = tested on: HOP-92 NSCLC
OVCAR-5 ovarian = tested on: OVCAR-5 ovarian
M19-MEL melanoma = tested on: M19-MEL melanoma
HOP-18 NSCLC = tested on: HOP-18 NSCLC
IGROV1 ovarian = tested on: IGROV1 ovarian
SNB-75 CNS = tested on: SNB-75 CNS
A549 NSCLC = tested on: A549 NSCLC
SK-MEL-2 melanoma = tested on: SK-MEL-2 melanoma
LOX IMVI melanoma = tested on: LOX IMVI melanoma
ACHN renal = tested on: ACHN renal
SF-539 CNS = tested on: SF-539 CNS
UACC-62 melanoma = tested on: UACC-62 melanoma
RPMI-8226 leukemia = tested on: RPMI-8226 leukemia
SK-MEL-28 melanoma = tested on: SK-MEL-28 melanoma
SNB-78 CNS = tested on: SNB-78 CNS
KM20L2 colon = tested on: KM20L2 colon
HOP-62 NSCLC = tested on: HOP-62 NSCLC
OVCAR-4 ovarian = tested on: OVCAR-4 ovarian
NCI-H522 lung = tested on: NCI-H522 lung
786-0 renal = tested on: 786-0 renal
SR leukemia = tested on: SR leukemia
HT29 colon = tested on: HT29 colon
EKVX NSCLC = tested on: EKVX NSCLC
HCC-2998 colon = tested on: HCC-2998 colon
A498 renal = tested on: A498 renal

Measured: TGI

CN(C)c1ccc(C(C#N)NNC(=O)Cc2ccccc2)cc1 (configuration not stated)
not listed: EKVX NSCLC | HCC-2998 colon | A498 renal
> 100 µM: all other assays above

COP(=O)(CC(=O)C1OC(C)(C)OC1C(O)COCc1ccccc1)OC (configuration not stated)
not listed: SK-OV-3 ovarian | NCI-H522 lung
> 100 µM: all other assays above

Source: PubChem BioAssay (NCI)
